Data reported in publication PMC4377982 (Marine Drugs, 2015).

Target: T1, human α7 nicotinic acetylcholine receptor (α7 nAChR) (Homo sapiens, UniProt P36544)
T1 construct: gene CHRNA7; human α7 nAChR transfected in GH4C1 cells
Assay: radioligand competition with on GH4C1 cells; agonism also shown by Ca2+ imaging in Neuro2a cells with PNU120596 (EC50 […])
Type: cell-based

T1 sequence (P36544 23-502): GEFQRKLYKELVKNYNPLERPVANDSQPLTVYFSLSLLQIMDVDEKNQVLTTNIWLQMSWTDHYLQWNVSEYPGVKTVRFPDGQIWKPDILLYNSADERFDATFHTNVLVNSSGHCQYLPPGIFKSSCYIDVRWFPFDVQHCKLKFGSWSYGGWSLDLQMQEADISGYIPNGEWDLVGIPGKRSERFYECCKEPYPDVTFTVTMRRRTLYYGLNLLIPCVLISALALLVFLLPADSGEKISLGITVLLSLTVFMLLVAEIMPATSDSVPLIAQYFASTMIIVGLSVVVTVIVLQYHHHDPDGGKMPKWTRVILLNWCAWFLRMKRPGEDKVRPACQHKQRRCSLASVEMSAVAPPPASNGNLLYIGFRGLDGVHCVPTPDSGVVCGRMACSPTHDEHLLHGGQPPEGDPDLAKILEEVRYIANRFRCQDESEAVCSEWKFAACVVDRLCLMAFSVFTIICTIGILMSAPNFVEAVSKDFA

## C[N+](C)(C)[C@@H](Cc1c[nH]c2cc(Br)ccc12)C(=O)[O-] [6-BHP, 6-Bromohypaphorine]
  IC50: 23 ± 1 µM
